From the supplement of paper PMC4862054

Legend:
Test in all cases: normalised response (% of control), CellTox Green; higher = less cell death (100 = DMSO, 0 = benzethonium chloride kill control)
Conditions in all cases: incubation time: 72 h
[1] = test system: BT-474
Method in brief: (§1)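 Plates were normalised with 0.1 % DMSO as 100 and a positive kill control as 0. Breast cancer cell lines in 20 µl suspension had been seeded into 384-well plates with compound at 5 concentrations in 10-fold steps over a compound-specific 10,000-fold range, incubated 72 h, and read for CellTox Green fluorescence (485/520 nm) followed by CellTiter-Glo luminescence. Each value is the normalised signal at a single concentration.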

[2] = test system: BT-549
Method in brief: as §1

[3] = test system: CAL-120
Method in brief: as §1

[4] = test system: CAL-148
Method in brief: as §1

[5] = test system: CAL-51
Method in brief: as §1

[6] = test system: CAL-85-1
Method in brief: as §1

[7] = test system: DU-4475
Method in brief: as §1

[8] = test system: HCC1143
Method in brief: as §1

[9] = test system: HCC1599
Method in brief: as §1

[10] = test system: HCC1937
Method in brief: as §1

[11] = test system: MCF-10A
Method in brief: as §1

[12] = test system: MDA-MB-436
Method in brief: as §1

[13] = test system: MDA-MB-453
Method in brief: as §1

[14] = test system: MFM-223
Method in brief: as §1

[15] = test system: HDQ-P1
Method in brief: as §1

[16] = test system: Hs578T
Method in brief: as §1

[17] = test system: MDA-MB-231
Method in brief: as §1

[18] = test system: MDA-MB-468
Method in brief: as §1

Compound | normalised response [1] | normalised response [2] | normalised response [3] | normalised response [4] | normalised response [5] | normalised response [6] | normalised response [7] | normalised response [8] | normalised response [9] | normalised response [10] | normalised response [11] | normalised response [12] | normalised response [13] | normalised response [14] | normalised response [15] | normalised response [16] | normalised response [17] | normalised response [18]
Cn1c(CCCC(=O)O)nc2cc(N(CCCl)CCCl)ccc21 [Bendamustine] (10000 nM) | 101% | 118% | 99.4% | 92.6% | 115% | 84.3% | 103% | 129% | 111% | 90.7% | 95.4% | 114% | 101% | 96.5% |  |  |  | 
CCC1(c2ccc(N)cc2)CCC(=O)NC1=O (configuration not stated) [Aminoglutethimide] (10000 nM) | 90% | 104% | 99.7% | 97% | 115% | 89.5% | 95.9% | 59.1% | 101% | 110% | 102% | 91.5% | 96.9% | 102% | 107% | 127% | 112% | 69%
Oc1nc(-c2ccc(C(F)(F)F)cc2)nc2c1CSCC2 [XAV-939] (10000 nM) | 103% | 104% | 93.8% | 101% | 79.7% | 105% | 103% | 103% | 103% | 93.2% | 103% | 95.5% | 94.1% | 101% | 71.7% | 65.4% | 101% | 115%
O=P1(NCCCl)OCCCN1CCCl (configuration not stated) [Ifosfamide] (10000 nM) | 70.9% | 77.5% | 100% | 95.8% | 93.9% | 133% | 94.9% | 99.9% | 93.6% |  |  | 82.4% | 104% | 95.7% | 101% | 54.2% | 89% | 193%
Clc1ccc(Nc2nnc(Cc3ccncc3)c3ccccc23)cc1 [Vatalanib] (10000 nM) | 102% | 118% | 102% | 53.2% | 109% | 76.8% | 107% | 125% | 114% | 123% | 55.9% | 107% | 105% | 97.1% | 114% | 78.7% | 129% | 86.5%
CO[C@H]1/C=C\C=C(/C)C(=O)NC2=CC(=O)C(NCCN(C)C)=C(C[C@@H](C)C[C@H](OC)[C@H](O)[C@@H](C)/C=C(\C)[C@@H]1OC(N)=O)C2=O [Alvespimycin] (1000 nM) | 61.3% | 107% | 87.5% | 45.8% | 69.6% | 33.3% | 79.2% | -15.9% | 104% | 34.5% | 23.5% | 106% | 82.7% | 86.5% | 80% | -33.1% | 33% | 34.9%
Cn1c(Nc2ccc(C(F)(F)F)cc2)nc2cc(Oc3ccnc(-c4ncc(C(F)(F)F)[nH]4)c3)ccc21 [RAF265] (1000 nM) | 98.1% | 81.7% | 100% | 80.4% | 96.3% | 55.5% | 99.4% | 122% | 110% | 82% | 75.4% | 107% | 102% | 21.6% | 109% | 118% | 113% | 145%
CNCc1ccc(-c2[nH]c3cc(F)cc4c3c2CCNC4=O)cc1 [Rucaparib] (10000 nM) | 96.9% | 112% | 98.4% | 88.9% | 94.4% | 129% | 97.5% | 74.6% | 93.7% | 84.9% | 83.3% | 75.7% | 101% | 97.1% | 105% |  | 98.5% | 160%
COc1cc2nccc(Oc3ccc(NC(=O)C4(C(=O)Nc5ccc(F)cc5)CC4)cc3)c2cc1OC [Cabozantinib] (1000 nM) | 98.4% | 105% | 98.6% | 96.9% | 82.7% | 104% | 96.9% | 108% | 94.5% | 102% |  | 87.1% | 101% | 93.8% | 65.3% | 70.1% | 97.1% | 158%
CN[C@@H]1C[C@H]2O[C@@](C)([C@@H]1OC)n1c3ccccc3c3c4c(c5c6ccccc6n2c5c31)C(=O)N[C@H]4O [UCN-01] (10000 nM) | 24.5% | 43.8% | 18.1% | 40.4% | 33.5% | -33.4% | 76.1% | 72% | 80.9% | 95.6% | -57.5% | 83.2% | 78.3% | 78.1% | 43.6% | -27.6% | 1.94% | 180%
CC1(C)NC(=O)N(c2ccc([N+](=O)[O-])c(C(F)(F)F)c2)C1=O [Nilutamide] (10000 nM) | 98.8% | 107% | 101% | 101% | 102% | 83.5% | 104% |  | 102% | 92.1% | 79.5% | 102% | 97.3% | 96.2% | 98.1% | 102% | 105% | 115%
O=C1CCC(N2C(=O)c3ccccc3C2=O)C(=O)N1 (configuration not stated) [Thalidomide] (10000 nM) | 103% | 99.3% | 104% | 60.5% | 100% | 119% | 99.1% | 105% | 99.9% | 97.8% | 99% |  | 93.2% | 101% |  | 63.3% | 115% | 186%
C=C(c1ccc(C(=O)O)cc1)c1cc2c(cc1C)C(C)(C)CCC2(C)C [Bexarotene] (10000 nM) | 97.8% | 89.8% | 100% | 97.9% | 96.8% | 79.7% | 101% | 114% | 108% | 105% | 93.8% | 78.6% | 98.4% | 74.1% | 110% |  | 108% | 121%
C#Cc1cccc(Nc2ncnc3cc(OCCOC)c(OCCOC)cc23)c1 [Erlotinib] (10000 nM) | 83.9% | 95.8% | 100% | 85.1% | 86% | 46% | 101% | 16.9% | 104% | 81.4% | 104% | 102% | 95.1% | 69.3% | 79.7% | 64.7% |  | 97.7%
N[C@@H](CSC(c1ccccc1)(c1ccccc1)c1ccccc1)C(=O)O [S-trityl-L-cysteine] (40000 nM) | 103% | 121% | 105% | 92.2% | 104% | 98.6% | 103% | 132% | 114% |  | 112% | 107% | 113% | 91% | 115% | 126% | 122% | 124%
Cc1ccc(C(=O)Nc2ccc(CN3CCN(C)CC3)c(C(F)(F)F)c2)cc1C#Cc1cnc2cccnn12 [Ponatinib] (1000 nM) | 92.3% | 59.4% | 59.5% | 60.9% | 57.4% | 60.8% | 93.3% | 71.3% | 103% | 15% | 97% | 95.6% | 103% | 96.4% | 76.6% | 24.4% | -32.9% | 164%
Cc1ccc(-n2nc(C(C)(C)C)cc2NC(=O)Nc2ccc(OCCN3CCOCC3)c3ccccc23)cc1 [Doramapimod] (10000 nM) | 97.5% | 110% | 93.6% | 98.2% | 86.3% | 126% | 100% | 75.8% | 99% | 79.6% | 101% | 55.2% | 104% | 96.5% | 96.2% | 71.6% |  | 132%
CN(C)/N=N/c1[nH]cnc1C(N)=O [Dacarbazine] (10000 nM) | 95% | 94.1% | 105% |  | 111% | 81.7% | 98.9% | 116% | 104% |  | 103% | 91.3% | 101% | 96.7% | 111% | 126% | 101% | 104%
